Counter-ions that a name gives are not always drawn.
Biological target: hResistin (Homo sapiens (Human), UniProt Q9HD89)
Experiment: Evaluation of the ability to inhibit TNF-α secretion by hResistin (THP-1 cells, ELISA)
Format: cell-based
Conditions: for inhibition at 5 µM: inhibition of TNF-α secretion by hResistin in THP-1 cells; for IC50: THP-1 human monocyte cell line, human recombinant Resistin
Procedure: Experimental Example: Evaluation of the Ability to Inhibit TNF-α Secretion by hResistin
Using THP-1 (human monocyte) cell line and ELISA system, the abilities to inhibit TNF-α secretion by hResistin (IC50) were evaluated for the compounds prepared in the above examples. The compounds target hResistin, and the abilities of the compounds to inhibit TNF-α secretion by human recombinant Resistin in human monocyte (THP-1) were evaluated. The abilities to inhibit TNF-α secretion were assessed by ELISA quantifying the amount of antibody with the enzyme as a marker using an antigen-antibody reaction.
Specifically, the cultured cells were spun down at 1,500 rpm for 2 minutes, the supernatant was removed and then the cells were re-suspended in 10 mL of complete RPMI-1640 medium. After counting the number of cells using Luna™ Automated Cell Counter, cells were plated into 96-well assay plates at 50 μL per well. The cells cultured for 24 hours were treated with the test substances in accordance with the concentration for 1 hour, and then the supernatant was collected and subjected to ELISA assay. In the ELISA assay, the absorbance at 450 nm (OD450 nm) was measured using Flexstation 3. The ability of each test substance to inhibit TNF-α secretion (IC50) and its inhibition at a concentration of 5 uM are shown in Table 1 below.

Chain of hResistin (Q9HD89 19-108): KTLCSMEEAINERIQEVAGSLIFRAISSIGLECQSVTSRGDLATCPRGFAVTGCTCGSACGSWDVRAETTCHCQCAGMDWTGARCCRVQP

SMILES	inhibition at 5 µM	IC50
NC1(C(=O)N2CCN(c3nnc(-c4ccc(Cl)cc4)c4ccccc34)CC2)CCCC1 [Example 58, (1-aminocyclopentyl)(4-(4-(4-chlorophenyl)phthalazin-1-yl)piperazin-1-yl)methanone hydrochloride]	77.3%	2.9 µM
CC(C)(N)C(=O)N1CCN(c2nnc(-c3ccc(C(F)(F)F)cc3)c3ccccc23)CC1 [Example 102, 2-amino-2-methyl-1-(4-(4-(4-(trifluoromethyl)phenyl)phthalazin-1-yl)piperazin-1-yl)propan-1-one hydrochloride]	37%	–
CC(=O)N1CCN(c2nnc(-c3ccc(C)cc3)c3ccccc23)CC1 [Example 2, 1-(4-(4-p-tolylphthalazin-1-yl)piperazin-1-yl)ethanone]	–	5 µM
CC(C)[C@H](N)C(=O)N1CCN(c2nnc(-c3ccc(Cl)cc3)c3ccccc23)[C@@H](C)C1 [Example 75, (S)-2-amino-1-((S)-4-(4-(4-chlorophenyl)phthalazin-1-yl)-3-methylpiperazin-1-yl)-3-methylbutan-1-one hydrochloride]	30.9%	–
CN[C@@H]1CCCN(c2nnc(-c3ccc(Cl)cc3)c3ccccc23)C1 [Example 57, (R)-1-(4-(4-chlorophenyl)phthalazin-1-yl)-N-methylpiperidin-3-amine hydrochloride]	92.8%	1 µM
Clc1ccc(-c2nnc(N3CC4CCNC4C3)c3ccccc23)cc1 (stereo not shown) [Example 88, 1-(4-chlorophenyl)-4-(hexahydropyrrolo[3,4-b]pyrrol-5(1H)-yl)phthalazine hydrochloride]	–	0.9 µM
N[C@@H](COCc1ccccc1)C(=O)N1CCN(c2nnc(-c3ccc(Cl)cc3)c3ccccc23)CC1 [Example 79, (S)-2-amino-3-(benzyloxy)-1-(4-(4-(4-chlorophenyl)phthalazin-1-yl)piperazin-1-yl)propan-1-one hydrochloride]	65.4%	–
CNC1CCN(c2nnc(-c3ccc(Cl)cc3)c3ccccc23)C1 (stereo not shown) [Example 46, 1-(4-(4-chlorophenyl)phthalazin-1-yl)-N-methylpyrrolidin-3-amine hydrochloride]	97.8%	0.3 µM
O=C(C1CCCCN1)N1CCN(c2nnc(-c3ccc(Cl)cc3)c3ccccc23)CC1 (stereo not shown) [Example 78, (4-(4-(4-chlorophenyl)phthalazin-1-yl)piperazin-1-yl)(piperidin-2-yl)methanone hydrochloride]	81.3%	–
CC(=O)NC1CCN(c2nnc(-c3ccc(Cl)cc3)c3ccccc23)C1 (stereo not shown) [Example 45, N-(1-(4-(4-chlorophenyl)phthalazin-1-yl)pyrrolidin-3-yl)acetamide]	77.6%	1.6 µM
CC(C)(C(=O)O)N1CCN(c2nnc(-c3ccc(Cl)cc3)c3ccccc23)CC1 [Example 82, 2-(4-(4-(4-chlorophenyl)phthalazin-1-yl)piperazin-1-yl)-2-methylpropanoic acid]	50%	–
N[C@H](C(=O)N1CCN(c2nnc(-c3ccc(Cl)cc3)c3ccccc23)CC1)c1ccccc1 [Example 80, (S)-2-amino-1-(4-(4-(4-chlorophenyl)phthalazin-1-yl)piperazin-1-yl)-2-phenylethanone hydrochloride]	69.9%	–
CNC1CCN(c2nnc(Cc3ccc(Cl)cc3)c3ccccc23)C1 (stereo not shown) [Example 98, 1-(4-(4-chlorobenzyl)phthalazin-1-yl)-N-methylpyrrolidin-3-amine hydrochloride]	3.9%	–
O=C(C1CC1)N1CCN(c2nnc(-c3ccc(Cl)cc3)c3ccccc23)CC1 [Example 10, (4-(4-(4-chlorophenyl)phthalazin-1-yl)piperazin-1-yl)(cyclopropyl)methanone]	–	1.2 µM
O=C([C@@H]1CCCN1)N1CCN(c2nnc(-c3ccc(Cl)cc3)c3ccccc23)CC1 [Example 59, (S)-(4-(4-(4-chlorophenyl)phthalazin-1-yl)piperazin-1-yl)(pyrrolidin-2-yl)methanone hydrochloride]	60.3%	–

Source: US10947241B2, “Phenyl phthalazine derivative, method for the preparation thereof, and pharmaceutical composition comprising the same” (Seoul National University Hospital, priority 2016, dated 2021)
